Read-outs that look alike come from different tables or passages of the source. Some results are limits rather than exact numbers.

Experimental findings from US20250332173A1, “COMPOUNDS AND METHODS FOR MODULATING NUCLEIC ACID SPLICING” (REMIX THERAPEUTICS INC., priority 2021, published 2025) are described below.

In one assay the test system is HTT mRNA. Nature of the assay: RT-qPCR splicing assay, HTT canonical junction (CJ) and alternative junction (AJ) mRNA. It counts as cell-based, human. As to conditions: for AC50: increase in HTT alternative junction (AJ) mRNA, read-out: HTT AJ AC50. The essentials:
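Following a 24-hour incubation of A673 or K562 cells with serially diluted compound (3-fold steps, highest final 10 uM), the lysates undergo cDNA synthesis plus qPCR. Canonical and alternative junctions are each quantified against PPIA, GAPDH or GUSB.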

In the next assay the test system is SMN2 mRNA. The experiment in a line: RT-qPCR splicing assay, SMN2 canonical junction (CJ) mRNA. It counts as cell-based, human. As to conditions: Table 5 panel, canonical junction qPCR, compound concentration having 50% response in CJ decrease, read-out: SMN2 IC50 (decrease in CJ mRNA levels). The gist of the method:
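Canonical exon-exon junction transcript levels measured by one-step RT-qPCR of cell lysates, normalized to a housekeeping gene (GAPDH, GUSB or PPIA). Cells used were A673 or K562, exposed for 24 h to compound in 11-point, 3-fold series from 10 uM, with final DMSO at or below 0.25%.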

The test system of the next assay is Target C. The experiment in a line: HiBiT protein abundance assay, Target C (Promega Nano-Glo HiBiT Lytic Detection System, knock-in K562 cell line). It counts as cell-based, human. As to conditions: HiBiT K562 cell line, 24 hours, top dose 10 μM, read-out: Effect on protein abundance, Target C (IC50 category). The essentials: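 HiBiT knock-in K562 cells (10,000/well) were treated for 24 h at 37 °C with a 10-point 3-fold dilution series, top final concentration 10 μM, DMSO ≤0.25%. Lytic HiBiT luminescence was read, normalized to unmodified K562 and DMSO-treated controls, and IC50 was interpolated from a four-parameter logistic fit.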
(In general: The HiBiT peptide binds its large partner to form an active luciferase.)

Assay [1] deals with K562 (human chronic myelogenous leukemia) cells. The experiment in a line: Cell Titer Glo 2.0 cell viability assay. Conditions: Homo sapiens, K562, 72 h, K562 cells, 72 hours, Cell Titer Glo 2.0; read-out: K562 GI50. It counts as cell-based.
Setting [2] is: Homo sapiens, decrease in HTT canonical junction (CJ) mRNA, RT-qPCR, read-out: HTT CJ IC50.
The mark [3] stands for this setting: Homo sapiens, Table 5 panel, canonical junction qPCR, compound concentration having 50% response in CJ decrease, read-out: HTT IC50 (decrease in CJ mRNA levels).

As usually defined, the IC50 is the concentration that gives 50% inhibition. One may read the AC50 as the concentration giving half of the maximal activity seen. As a reminder, the GI50 is the concentration giving 50% growth inhibition. For the molecule `Cc1cn2cc(-c3ccc4c(=O)n(C5CCNCC5)ncc4c3)c(C)cc2n1` [Compound 254], the IC50 in the assay on HTT mRNA (setting [2]) fell in the range of 1000 to 10000 nM; in the assay on HTT mRNA (setting [3]), 1000 to 10000 nM; in the assay with SMN2 mRNA (Homo sapiens), 1000 to 10000 nM; in the assay with Target C (Homo sapiens, K562, 24 h) it was 1000 to 10000 nM. Further, the AC50 in the assay with HTT mRNA (Homo sapiens, RT-qPCR) was in the range of 1000 to 10000 nM. For the same molecule, in assay [1], the GI50 was 1000 to 10000 nM.

Regarding `Cc1cn2cc(-c3ccc4c(=O)n(C5CCNCC5)ncc4c3)ncc2n1` [Compound 255], the IC50 in the assay on HTT mRNA (setting [2]) was 1000 to 10000 nM; in the assay with HTT mRNA (setting [3]) it was 1000 to 10000 nM; in the assay with SMN2 mRNA (Homo sapiens) it was 100 to 1000 nM; in the assay on Target C (Homo sapiens, K562, 24 h) it was > 10000 nM. Further, the AC50 with HTT mRNA (Homo sapiens, RT-qPCR) fell in the range of 1000 to 10000 nM. Further, in assay [1], the 50% growth inhibitory concentration (GI50) lay within 100 to 1000 nM.

In the case of `Cc1cn2cc(-c3ccc4c(=O)n(C5CCNCC5)ncc4c3)cc(Cl)c2n1` [Compound 256], the 50% inhibitory concentration (IC50) in the assay with HTT mRNA (setting [2]) is 100 to 1000 nM; in the assay with HTT mRNA (setting [3]), 100 to 1000 nM; in the assay with SMN2 mRNA (Homo sapiens) it was < 100 nM; in the assay with Target C (Homo sapiens, K562, 24 h), 100 to 1000 nM. In addition, in the assay with HTT mRNA (Homo sapiens, RT-qPCR), the concentration at half-maximal activity (AC50) lay within 100 to 1000 nM. Moreover, in assay [1], the GI50 is < 100 nM.

On to `Cc1cn2cc(-c3ccc4c(=O)n(C5CCNCC5)ncc4c3)cc(C)c2n1` [Compound 257], for which the IC50 in the assay with HTT mRNA (setting [2]) is 100 to 1000 nM; with HTT mRNA (setting [3]), 100 to 1000 nM; in the assay with SMN2 mRNA (Homo sapiens), < 100 nM; in the assay on Target C (Homo sapiens, K562, 24 h), 100 to 1000 nM. Moreover, the concentration at half-maximal activity (AC50) in the assay on HTT mRNA (Homo sapiens, RT-qPCR) fell in the range of 100 to 1000 nM. In assay [1], the GI50 is < 100 nM.

In the case of `Cc1cn2nc(-c3ccc4c(=O)n(C5CCNCC5)ncc4c3)nc2c(C)n1` [Compound 259], the IC50 in the assay with HTT mRNA (setting [2]) was 100 to 1000 nM; in the assay with HTT mRNA (setting [3]), 100 to 1000 nM; in the assay on SMN2 mRNA (Homo sapiens), 100 to 1000 nM; with Target C (Homo sapiens, K562, 24 h), 100 to 1000 nM. Moreover, the AC50 with HTT mRNA (Homo sapiens, RT-qPCR) was 100 to 1000 nM. In addition, the 50% growth inhibitory concentration (GI50) in assay [1] is 100 to 1000 nM.

For the molecule `Cc1cn2nc(-c3ccc4c(=O)n(C5CCNCC5)ncc4c3)cc2c(C)n1` [Compound 260], the IC50 lay in the range of 100 to 1000 nM in the assay on HTT mRNA (setting [2]); 100 to 1000 nM with HTT mRNA (setting [3]); 100 to 1000 nM in the assay on SMN2 mRNA (Homo sapiens); 1000 to 10000 nM in the assay on Target C (Homo sapiens, K562, 24 h). Further, in the assay with HTT mRNA (Homo sapiens, RT-qPCR), the concentration at half-maximal activity (AC50) lay in the range of 100 to 1000 nM. Further, the GI50 in assay [1] lay within 100 to 1000 nM.

With `O=c1c2ccc(-c3cn[nH]c3)cc2cnn1C1CCNCC1` [Compound 261], the IC50 in the assay on HTT mRNA (setting [2]) was > 10000 nM; in the assay with HTT mRNA (setting [3]), > 10000 nM; in the assay with SMN2 mRNA (Homo sapiens) it was 1000 to 10000 nM; with Target C (Homo sapiens, K562, 24 h), > 10000 nM. Further, the concentration at half-maximal activity (AC50) in the assay with HTT mRNA (Homo sapiens, RT-qPCR) is > 10000 nM. Moreover, the GI50 in assay [1] was > 10000 nM.

As for `Cc1cn2cc(-c3ccc4c(=O)n(C5CCNCC5)ncc4c3)cc(C(F)(F)F)c2n1` [Compound 262], the IC50 in the assay with HTT mRNA (setting [2]) is 1000 to 10000 nM; with HTT mRNA (setting [3]), 1000 to 10000 nM; in the assay on SMN2 mRNA (Homo sapiens), < 100 nM; in the assay with Target C (Homo sapiens, K562, 24 h) it was 1000 to 10000 nM. In addition, the half-maximal activity concentration (AC50) with HTT mRNA (Homo sapiens, RT-qPCR) was in the range of 1000 to 10000 nM. The GI50 in assay [1] was in the range of 100 to 1000 nM.

Regarding `Cn1cc2ccc(-c3ccc4c(=O)n(C5CCNCC5)ncc4c3)cc2n1` [Compound 263], the half-inhibitory concentration (IC50) with HTT mRNA (setting [2]) was > 10000 nM; in the assay on HTT mRNA (setting [3]), > 10000 nM; in the assay on SMN2 mRNA (Homo sapiens) it was > 10000 nM; in the assay on Target C (Homo sapiens, K562, 24 h), 1000 to 10000 nM. For the same molecule, the AC50 in the assay with HTT mRNA (Homo sapiens, RT-qPCR) was > 10000 nM. For the same molecule, the GI50 in assay [1] was in the range of 1000 to 10000 nM.

For the molecule `Cc1cn2nc(-c3ccc4c(=O)n(C5CCNC5)ncc4c3)cc(C)c2n1` (stereo not drawn) [Compound 264], the IC50 in the assay with HTT mRNA (setting [2]) was 1000 to 10000 nM; in the assay on HTT mRNA (setting [3]), 1000 to 10000 nM; with SMN2 mRNA (Homo sapiens), 100 to 1000 nM; in the assay on Target C (Homo sapiens, K562, 24 h) it was > 10000 nM. Further, the AC50 in the assay with HTT mRNA (Homo sapiens, RT-qPCR) was in the range of 1000 to 10000 nM. Moreover, the concentration for 50% growth inhibition (GI50) in assay [1] lay in the range of 1000 to 10000 nM.

For `Cc1cn2nc(-c3ccc4c(=O)n(C5CCN(C)CC5)ncc4c3)cc(C)c2n1` [Compound 265], the concentration for half-maximal inhibition (IC50) in the assay with HTT mRNA (setting [2]) was < 100 nM; in the assay on HTT mRNA (setting [3]) it was < 100 nM; with SMN2 mRNA (Homo sapiens) it was < 100 nM; in the assay with Target C (Homo sapiens, K562, 24 h) it was 100 to 1000 nM. Also, the concentration at half-maximal activity (AC50) in the assay on HTT mRNA (Homo sapiens, RT-qPCR) was < 100 nM. Further, the 50% growth inhibitory concentration (GI50) in assay [1] lay in the range of 100 to 1000 nM.

As to `Cc1cn2nc(-c3ccc4c(=O)n([C@@H]5CCNC6(CC6)C5)cnc4c3)cc(C)c2n1` [Compound 444], the half-inhibitory concentration (IC50) was 100 to 1000 nM in the assay with HTT mRNA (Table 5 panel, canonical junction qPCR, compound concentration having 50% response in CJ decrease, read-out: HTT IC50 (decrease in CJ mRNA levels)); 100 to 1000 nM in the assay with HTT mRNA (decrease in HTT canonical junction (CJ) mRNA, RT-qPCR, read-out: HTT CJ IC50); < 100 nM in the assay on SMN2 mRNA; 100 to 1000 nM in the assay on Target C. Further, the AC50 in the assay on HTT mRNA (RT-qPCR) is 100 to 1000 nM. The GI50 in assay [1] was 100 to 1000 nM.
